Patent publication US20230167073A1 (Teijin Pharma Limited, priority 2020, published 2023)

Target: T1, Human TRPC6 (Homo sapiens, UniProt Q9Y210)
T1 construct: expressed in transfected cells
T1 sequence (Q9Y210 1-931): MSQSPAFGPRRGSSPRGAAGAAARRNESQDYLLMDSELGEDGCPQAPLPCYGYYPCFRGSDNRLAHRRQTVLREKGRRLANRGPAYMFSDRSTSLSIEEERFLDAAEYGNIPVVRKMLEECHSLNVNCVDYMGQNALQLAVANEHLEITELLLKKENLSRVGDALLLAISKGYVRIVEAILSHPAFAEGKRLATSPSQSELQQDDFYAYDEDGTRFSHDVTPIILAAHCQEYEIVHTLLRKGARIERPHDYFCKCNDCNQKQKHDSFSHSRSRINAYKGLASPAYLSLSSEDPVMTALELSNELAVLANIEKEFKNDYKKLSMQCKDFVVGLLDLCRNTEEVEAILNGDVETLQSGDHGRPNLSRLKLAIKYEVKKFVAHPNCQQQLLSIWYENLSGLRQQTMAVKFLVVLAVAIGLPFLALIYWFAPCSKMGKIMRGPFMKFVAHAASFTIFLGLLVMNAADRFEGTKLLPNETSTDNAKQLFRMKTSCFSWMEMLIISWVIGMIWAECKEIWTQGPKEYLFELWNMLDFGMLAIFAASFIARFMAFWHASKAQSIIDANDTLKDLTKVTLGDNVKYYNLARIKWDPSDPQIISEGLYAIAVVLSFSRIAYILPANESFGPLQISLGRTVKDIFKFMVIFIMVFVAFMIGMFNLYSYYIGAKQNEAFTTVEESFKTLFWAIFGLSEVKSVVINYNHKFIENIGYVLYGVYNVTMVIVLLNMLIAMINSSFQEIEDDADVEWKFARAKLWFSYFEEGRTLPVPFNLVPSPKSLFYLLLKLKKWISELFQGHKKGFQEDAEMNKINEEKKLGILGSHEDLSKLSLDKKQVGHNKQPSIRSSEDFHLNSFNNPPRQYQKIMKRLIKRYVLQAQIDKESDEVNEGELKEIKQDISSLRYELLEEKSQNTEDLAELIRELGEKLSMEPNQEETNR
Test: Evaluation of TRPC6 channel inhibitory activity (1), FLIPR Calcium 5 Assay Kit, OAG stimulation (Compound Nos. 1-1293)
Assay type: cell-based
Details: Human TRPC6 stably-expressing cells, OAG 30 μM, FLIPR Calcium 5 Assay Kit; read-out: Inhibitory activity (pIC50 class) (converted)
How it was run: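 TRPC6 (human) stable cells, 24 h culture; Ca5 no-wash dye + probenecid 30 min; cpd 20 min; OAG 30 μM final; ΔF (pre-cpd min to post-OAG max); 0%/100% = no cpd / no cpd + no OAG; 4PL → pIC50, binned +/++/+++.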

| SMILES | IC50 [µM] |
| --- | --- |
| Cn1nc(-c2ccccc2)cc1Oc1cc(C#N)ccc1-c1ccc(C(O)C(C)(C)N)cn1 (stereo not drawn) [compound 301, 4-[5-(2-amino-1-hydroxy-2-methylpropyl)pyridin-2-yl]-3-(2-methyl-5-phenylpyrazol-3-yl)oxybenzonitrile] | < 0.01 |
| Cc1nc(Oc2cc(C#N)ccc2-n2cc(C(O)C(C)(C)N)cn2)cc(N2CCOCC2)n1 (stereo not drawn) [compound 302, 4-[4-(2-amino-1-hydroxy-2-methylpropyl)pyrazol-1-yl]-3-(2-methyl-6-morpholin-4-ylpyrimidin-4-yl)oxybenzonitrile] | 0.01 to 1 |
| Cc1cc(Oc2cc(C#N)ccc2-c2ccc(C(O)C(C)(C)N)cn2)cc(N2CCOCC2)n1 (stereo not drawn) [compound 303, 4-[5-(2-amino-1-hydroxy-2-methylpropyl)pyridin-2-yl]-3-(2-methyl-6-morpholin-4-ylpyridin-4-yl)oxybenzonitrile] | 0.01 to 1 |
| Cc1cc(Oc2cc(C#N)ccc2-n2cc(CCN)cn2)n(C)n1 [compound 304, 4-[4-(2-aminoethyl)pyrazol-1-yl]-3-(2,5-dimethylpyrazol-3-yl)oxybenzonitrile] | > 1 |
| Cc1cc(Oc2cc(C#N)ccc2-c2ncc(CCN)cn2)n(C)n1 [compound 305, 4-[5-(2-aminoethyl)pyrimidin-2-yl]-3-(2,5-dimethylpyrazol-3-yl)oxybenzonitrile] | 0.01 to 1 |
| N#Cc1ccc(-c2ccc(CCN)cc2)c(Oc2cc(-c3ccccc3)no2)c1 [compound 306, 4-[4-(2-aminoethyl)phenyl]-3-[(3-phenyl-1,2-oxazol-5-yl)oxy]benzonitrile] | < 0.01 |
| Cc1cc(Oc2cc(C#N)ccc2-c2ccc(C(F)(F)CN)cn2)cc(N2CCOCC2)n1 [compound 307, 4-[5-(2-amino-1,1-difluoroethyl)pyridin-2-yl]-3-(2-methyl-6-morpholin-4-ylpyridin-4-yl)oxybenzonitrile] | 0.01 to 1 |
| Cn1nc(-c2ccccc2)cc1Oc1cc(C#N)ccc1-c1ccc(C(F)(F)CN)cn1 [compound 308, 4-[5-(2-amino-1,1-difluoroethyl)pyridin-2-yl]-3-(2-methyl-5-phenylpyrazol-3-yl)oxybenzonitrile] | 0.01 to 1 |
| CCOC(=O)c1cc(Oc2cc(C#N)ccc2-c2ccc(CCN)cn2)n(C)n1 [compound 309, ethyl 5-[2-[5-(2-aminoethyl)pyridin-2-yl]-5-cyanophenoxy]-1-methylpyrazole-3-carboxylate] | 0.01 to 1 |
| Cn1nc(-c2ccccc2)cc1Oc1cc(C#N)ccc1-c1ncc(CN)cn1 [compound 310, 4-[5-(aminomethyl)pyrimidin-2-yl]-3-(2-methyl-5-phenylpyrazol-3-yl)oxybenzonitrile] | < 0.01 |
| Cn1nccc1Oc1cc(C#N)ccc1-c1ncc(CCN)cn1 [compound 311, 4-[5-(2-aminoethyl)pyrimidin-2-yl]-3-(2-methylpyrazol-3-yl)oxybenzonitrile] | > 1 |
| Cn1nc(-c2ccccc2)cc1Oc1cc(C#N)ccc1-c1ccc(CCN)nn1 [compound 312, 4-[6-(2-aminoethyl)pyridazin-3-yl]-3-(2-methyl-5-phenylpyrazol-3-yl)oxybenzonitrile] | < 0.01 |
| Cn1nc(-c2ccccc2)cc1Oc1cc(C#N)ccc1-c1cnc(CCN)cn1 [compound 313, 4-[5-(2-aminoethyl)pyrazin-2-yl]-3-(2-methyl-5-phenylpyrazol-3-yl)oxybenzonitrile] | < 0.01 |
| Cn1nc(-c2ccccc2)cc1Oc1cc(C#N)ccc1-c1cnc(C(O)CN)cn1 (stereo not drawn) [compound 314, 4-[5-(2-amino-1-hydroxyethyl)pyrazin-2-yl]-3-(2-methyl-5-phenylpyrazol-3-yl)oxybenzonitrile] | < 0.01 |
| Cc1cc(Oc2cc(C#N)ccc2-c2ncc(CCN)cn2)cc(C2CC2)n1 [compound 315, 4-[5-(2-aminoethyl)pyrimidin-2-yl]-3-(2-cyclopropyl-6-methylpyridin-4-yl)oxybenzonitrile] | < 0.01 |
| Cn1nc(C(=O)O)cc1Oc1cc(C#N)ccc1-c1ccc(CCN)cn1 [compound 316, 5-[2-[5-(2-aminoethyl)pyridin-2-yl]-5-cyanophenoxy]-1-methylpyrazole-3-carboxylic acid] | > 1 |
| Cn1nc(C2CC2)cc1Oc1cc(C#N)ccc1-c1ncc(CCN)cn1 [compound 317, 4-[5-(2-aminoethyl)pyrimidin-2-yl]-3-(5-cyclopropyl-2-methylpyrazol-3-yl)oxybenzonitrile] | < 0.01 |

| SMILES | IC50 [µM] |
| --- | --- |
| CCCCc1cc(Oc2cc(C#N)ccc2-c2ccc(C(O)CN)cn2)n(C)n1 (stereo not drawn) [compound 318, 4-[5-(2-amino-1-hydroxyethyl)pyridin-2-yl]-3-(5-butyl-2-methylpyrazol-3-yl)oxybenzonitrile] | < 0.01 |
| CCCCc1cc(Oc2cc(C#N)ccc2-c2ncc(CCN)cn2)n(C)n1 [compound 319, 4-[5-(2-aminoethyl)pyrimidin-2-yl]-3-(5-butyl-2-methylpyrazol-3-yl)oxybenzonitrile] | < 0.01 |
| COc1ccccc1-c1cc(Oc2cc(C#N)ccc2-c2ccc(C(O)CN)cn2)n(C)n1 (stereo not drawn) [compound 320, 4-[5-(2-amino-1-hydroxyethyl)pyridin-2-yl]-3-[5-(2-methoxyphenyl)-2-methylpyrazol-3-yl]oxybenzonitrile] | < 0.01 |
| Cn1nc(-c2ccccc2O)cc1Oc1cc(C#N)ccc1-c1ccc(C(O)CN)cn1 (stereo not drawn) [compound 321, 4-[5-(2-amino-1-hydroxyethyl)pyridin-2-yl]-3-[5-(2-hydroxyphenyl)-2-methylpyrazol-3-yl]oxybenzonitrile] | < 0.01 |
| Cn1nc(-c2ccccc2OCc2ccccc2)cc1Oc1cc(C#N)ccc1-c1ccc(C(O)CN)cn1 (stereo not drawn) [compound 322, 4-[5-(2-amino-1-hydroxyethyl)pyridin-2-yl]-3-[2-methyl-5-(2-phenylmethoxyphenyl)pyrazol-3-yl]oxybenzonitrile] | 0.01 to 1 |
| Cc1cc(Oc2cc(C#N)ccc2-c2ccc(CN)cn2)n(C)n1 [compound 323, 4-[5-(aminomethyl)pyridin-2-yl]-3-(2,5-dimethylpyrazol-3-yl)oxybenzonitrile] | 0.01 to 1 |
| CCc1cc(Oc2cc(C#N)ccc2-c2ncc(CN)cn2)n(C)n1 [compound 324, 4-[5-(aminomethyl)pyrimidin-2-yl]-3-(5-ethyl-2-methylpyrazol-3-yl)oxybenzonitrile] | < 0.01 |
| Cn1nc(C2CC2)cc1Oc1cc(C#N)ccc1-c1ncc(CN)cn1 [compound 325, 4-[5-(aminomethyl)pyrimidin-2-yl]-3-(5-cyclopropyl-2-methylpyrazol-3-yl)oxybenzonitrile] | < 0.01 |
| CCc1cc(Oc2cc(C#N)ccc2-c2ccc(CN)cn2)n(C)n1 [compound 326, 4-[5-(aminomethyl)pyridin-2-yl]-3-(5-ethyl-2-methylpyrazol-3-yl)oxybenzonitrile] | < 0.01 |
| Cn1nc(C2CC2)cc1Oc1cc(C#N)ccc1-c1ccc(CN)cn1 [compound 327, 4-[5-(aminomethyl)pyridin-2-yl]-3-(5-cyclopropyl-2-methylpyrazol-3-yl)oxybenzonitrile] | < 0.01 |
| Cc1cc(Oc2cc(C#N)ccc2-c2ncc(CN)cn2)cc(N2CCOCC2)n1 [compound 328, 4-[5-(aminomethyl)pyrimidin-2-yl]-3-(2-methyl-6-morpholin-4-ylpyridin-4-yl)oxybenzonitrile] | < 0.01 |
| Cc1cc(Oc2cc(C#N)ccc2-c2ccc(CN)cn2)cc(N2CCOCC2)n1 [compound 329, 4-[5-(aminomethyl)pyridin-2-yl]-3-(2-methyl-6-morpholin-4-ylpyridin-4-yl)oxybenzonitrile] | < 0.01 |
| CCc1cc(Oc2cc(C#N)ccc2-c2ccc(CN)nc2)n(C)n1 [compound 330, 4-[6-(aminomethyl)pyridin-3-yl]-3-(5-ethyl-2-methylpyrazol-3-yl)oxybenzonitrile] | > 1 |
| Cn1nc(C2CC2)cc1Oc1cc(C#N)ccc1-c1ccc(CN)nc1 [compound 331, 4-[6-(aminomethyl)pyridin-3-yl]-3-(5-cyclopropyl-2-methylpyrazol-3-yl)oxybenzonitrile] | 0.01 to 1 |
| Cc1cc(Oc2cc(C#N)ccc2-c2cnc(CN)cn2)cc(N2CCOCC2)n1 [compound 332, 4-[5-(aminomethyl)pyrazin-2-yl]-3-(2-methyl-6-morpholin-4-ylpyridin-4-yl)oxybenzonitrile] | 0.01 to 1 |
| Cc1cc(Oc2cc(C#N)ccc2-c2ccc(CC(C)(C)N)cn2)cc(N2CCOCC2)n1 [compound 333, 4-[5-(2-amino-2-methylpropyl)pyridin-2-yl]-3-(2-methyl-6-morpholin-4-ylpyridin-4-yl)oxybenzonitrile] | < 0.01 |
